We go through 20 compounds from patent publication US10913744B2, “LRRK2 inhibitors and methods of making and using the same” (Dana-Farber Cancer Institute, Inc., priority 2015, dated 2021).

Read-outs that look alike come from different tables or passages of the source.

Assay [1] deals with wild type LRRK2 (Homo sapiens (Human), UniProt Q5S007). In words: LRRK2 enzyme kinase assay, wild type. The class given is biochemical.
Assay [2] concerns the target LRRK2[G2019S] (Homo sapiens (Human), UniProt Q5S007, G2019S). Put plainly: LRRK2 enzyme kinase assay, G2019S. The class given is biochemical.
In assay [3] the test system is LRRK2. The following applies: G2019S LRRK2 transgenic mice, oral dosing; cited from earlier work.
Assay [4] addresses GST-LRRK2(1,326-2,517) wild-type (Homo sapiens (Human), UniProt Q5S007). In words: Nictide peptide kinase assay, 100 μM ATP. The class given is biochemical. The settings on record: 20 μM Nictide. As to the method: (§1) Assay procedures are further discussed in Section 4 herein.
(§2) Samples were washed extensively and the incorporation of [γ-32P]ATP into Nictide was quantified by Cerenkov counting. IC50 values were calculated with GraphPad Prism using non-linear regression analysis.

Assay [5] addresses GST-LRRK2[A2016T](1326-2517) (Homo sapiens (Human), UniProt Q5S007, A2016T). Put plainly: Nictide peptide kinase assay, 100 μM ATP. The settings on record: 20 μM Nictide. The class given is biochemical. As to the method:
as §1, §2

Assay [6] concerns the target GST-LRRK2[G2019S + A2016T](1,326-2,517) (Homo sapiens (Human), UniProt Q5S007, A2016T/G2019S). In words: Nictide peptide kinase assay, 100 μM ATP. The class given is biochemical. The following applies: 20 μM Nictide. As to the method:
as §1, §2

Assay [7] deals with GST-LRRK2[G2019S](1,326-2,527) (Homo sapiens (Human), UniProt Q5S007, G2019S). Put plainly: Nictide peptide kinase assay, 100 μM ATP. The class given is biochemical. The settings on record: 20 μM Nictide. As to the method: as §1, §2
Assay [8] concerns the target LRRK2 (Mus musculus (Mouse), UniProt Q5S006). In words: Pharmacodynamic study, LRRK2 Ser910/Ser935 phosphorylation in mouse kidney, spleen and brain. The class given is in vivo.
Where [9] appears, read: Table 1, ATP at Km 36 μm, read-out: Enzyme IC50 wt.
[10] abbreviates: Table 3, read-out: Enzyme IC50 WT.

Sequence of wild type LRRK2 (Q5S007 1326-2527): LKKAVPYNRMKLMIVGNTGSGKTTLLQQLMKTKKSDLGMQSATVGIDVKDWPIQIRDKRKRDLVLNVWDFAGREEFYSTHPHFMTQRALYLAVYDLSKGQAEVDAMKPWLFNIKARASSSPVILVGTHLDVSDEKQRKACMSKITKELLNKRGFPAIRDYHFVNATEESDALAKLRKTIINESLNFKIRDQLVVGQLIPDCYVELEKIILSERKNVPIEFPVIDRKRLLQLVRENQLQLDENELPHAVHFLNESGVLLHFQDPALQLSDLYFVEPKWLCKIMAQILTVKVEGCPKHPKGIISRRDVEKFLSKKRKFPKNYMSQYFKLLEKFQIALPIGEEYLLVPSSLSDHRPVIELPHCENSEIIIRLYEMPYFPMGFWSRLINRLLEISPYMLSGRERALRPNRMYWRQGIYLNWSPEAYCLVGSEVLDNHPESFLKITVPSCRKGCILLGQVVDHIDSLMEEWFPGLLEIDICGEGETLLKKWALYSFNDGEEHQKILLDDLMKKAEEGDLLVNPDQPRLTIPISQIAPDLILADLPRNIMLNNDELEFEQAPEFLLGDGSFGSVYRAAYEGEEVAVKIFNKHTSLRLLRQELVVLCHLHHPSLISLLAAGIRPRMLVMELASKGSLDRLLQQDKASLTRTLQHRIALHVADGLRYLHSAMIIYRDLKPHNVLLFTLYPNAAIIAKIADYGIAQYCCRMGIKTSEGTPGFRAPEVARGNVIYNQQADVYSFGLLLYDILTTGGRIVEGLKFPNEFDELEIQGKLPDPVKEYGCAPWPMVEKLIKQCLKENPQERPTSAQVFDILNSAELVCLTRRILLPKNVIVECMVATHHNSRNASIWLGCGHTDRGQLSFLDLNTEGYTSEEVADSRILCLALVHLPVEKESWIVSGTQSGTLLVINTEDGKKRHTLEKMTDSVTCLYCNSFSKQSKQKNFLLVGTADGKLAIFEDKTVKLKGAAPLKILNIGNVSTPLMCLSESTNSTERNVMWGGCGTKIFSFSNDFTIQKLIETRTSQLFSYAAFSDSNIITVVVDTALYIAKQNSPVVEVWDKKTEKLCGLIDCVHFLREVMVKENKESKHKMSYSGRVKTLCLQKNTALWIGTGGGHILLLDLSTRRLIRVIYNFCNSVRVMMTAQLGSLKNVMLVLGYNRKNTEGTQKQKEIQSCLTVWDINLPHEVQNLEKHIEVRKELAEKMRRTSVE
Sequence of LRRK2[G2019S] (Q5S007 1326-2527 G2019S): as the sequence (Q5S007 1326-2527) above, with G694S counted along it
Sequence of GST-LRRK2(1,326-2,517) wild-type (Q5S007 1326-2527): as the sequence (Q5S007 1326-2527) above
Sequence of GST-LRRK2[A2016T](1326-2517) (Q5S007 1326-2527 A2016T): as the sequence (Q5S007 1326-2527) above, with A691T counted along it
Sequence of GST-LRRK2[G2019S + A2016T](1,326-2,517) (Q5S007 1326-2527 A2016T/G2019S): as the sequence (Q5S007 1326-2527) above, with A691T, G694S counted along it
Sequence of GST-LRRK2[G2019S](1,326-2,527) (Q5S007 1326-2527 G2019S): as the sequence (Q5S007 1326-2527) above, with G694S counted along it
Sequence of LRRK2 (Mus musculus (Mouse), UniProt Q5S006) (Q5S006 whole entry, looked up): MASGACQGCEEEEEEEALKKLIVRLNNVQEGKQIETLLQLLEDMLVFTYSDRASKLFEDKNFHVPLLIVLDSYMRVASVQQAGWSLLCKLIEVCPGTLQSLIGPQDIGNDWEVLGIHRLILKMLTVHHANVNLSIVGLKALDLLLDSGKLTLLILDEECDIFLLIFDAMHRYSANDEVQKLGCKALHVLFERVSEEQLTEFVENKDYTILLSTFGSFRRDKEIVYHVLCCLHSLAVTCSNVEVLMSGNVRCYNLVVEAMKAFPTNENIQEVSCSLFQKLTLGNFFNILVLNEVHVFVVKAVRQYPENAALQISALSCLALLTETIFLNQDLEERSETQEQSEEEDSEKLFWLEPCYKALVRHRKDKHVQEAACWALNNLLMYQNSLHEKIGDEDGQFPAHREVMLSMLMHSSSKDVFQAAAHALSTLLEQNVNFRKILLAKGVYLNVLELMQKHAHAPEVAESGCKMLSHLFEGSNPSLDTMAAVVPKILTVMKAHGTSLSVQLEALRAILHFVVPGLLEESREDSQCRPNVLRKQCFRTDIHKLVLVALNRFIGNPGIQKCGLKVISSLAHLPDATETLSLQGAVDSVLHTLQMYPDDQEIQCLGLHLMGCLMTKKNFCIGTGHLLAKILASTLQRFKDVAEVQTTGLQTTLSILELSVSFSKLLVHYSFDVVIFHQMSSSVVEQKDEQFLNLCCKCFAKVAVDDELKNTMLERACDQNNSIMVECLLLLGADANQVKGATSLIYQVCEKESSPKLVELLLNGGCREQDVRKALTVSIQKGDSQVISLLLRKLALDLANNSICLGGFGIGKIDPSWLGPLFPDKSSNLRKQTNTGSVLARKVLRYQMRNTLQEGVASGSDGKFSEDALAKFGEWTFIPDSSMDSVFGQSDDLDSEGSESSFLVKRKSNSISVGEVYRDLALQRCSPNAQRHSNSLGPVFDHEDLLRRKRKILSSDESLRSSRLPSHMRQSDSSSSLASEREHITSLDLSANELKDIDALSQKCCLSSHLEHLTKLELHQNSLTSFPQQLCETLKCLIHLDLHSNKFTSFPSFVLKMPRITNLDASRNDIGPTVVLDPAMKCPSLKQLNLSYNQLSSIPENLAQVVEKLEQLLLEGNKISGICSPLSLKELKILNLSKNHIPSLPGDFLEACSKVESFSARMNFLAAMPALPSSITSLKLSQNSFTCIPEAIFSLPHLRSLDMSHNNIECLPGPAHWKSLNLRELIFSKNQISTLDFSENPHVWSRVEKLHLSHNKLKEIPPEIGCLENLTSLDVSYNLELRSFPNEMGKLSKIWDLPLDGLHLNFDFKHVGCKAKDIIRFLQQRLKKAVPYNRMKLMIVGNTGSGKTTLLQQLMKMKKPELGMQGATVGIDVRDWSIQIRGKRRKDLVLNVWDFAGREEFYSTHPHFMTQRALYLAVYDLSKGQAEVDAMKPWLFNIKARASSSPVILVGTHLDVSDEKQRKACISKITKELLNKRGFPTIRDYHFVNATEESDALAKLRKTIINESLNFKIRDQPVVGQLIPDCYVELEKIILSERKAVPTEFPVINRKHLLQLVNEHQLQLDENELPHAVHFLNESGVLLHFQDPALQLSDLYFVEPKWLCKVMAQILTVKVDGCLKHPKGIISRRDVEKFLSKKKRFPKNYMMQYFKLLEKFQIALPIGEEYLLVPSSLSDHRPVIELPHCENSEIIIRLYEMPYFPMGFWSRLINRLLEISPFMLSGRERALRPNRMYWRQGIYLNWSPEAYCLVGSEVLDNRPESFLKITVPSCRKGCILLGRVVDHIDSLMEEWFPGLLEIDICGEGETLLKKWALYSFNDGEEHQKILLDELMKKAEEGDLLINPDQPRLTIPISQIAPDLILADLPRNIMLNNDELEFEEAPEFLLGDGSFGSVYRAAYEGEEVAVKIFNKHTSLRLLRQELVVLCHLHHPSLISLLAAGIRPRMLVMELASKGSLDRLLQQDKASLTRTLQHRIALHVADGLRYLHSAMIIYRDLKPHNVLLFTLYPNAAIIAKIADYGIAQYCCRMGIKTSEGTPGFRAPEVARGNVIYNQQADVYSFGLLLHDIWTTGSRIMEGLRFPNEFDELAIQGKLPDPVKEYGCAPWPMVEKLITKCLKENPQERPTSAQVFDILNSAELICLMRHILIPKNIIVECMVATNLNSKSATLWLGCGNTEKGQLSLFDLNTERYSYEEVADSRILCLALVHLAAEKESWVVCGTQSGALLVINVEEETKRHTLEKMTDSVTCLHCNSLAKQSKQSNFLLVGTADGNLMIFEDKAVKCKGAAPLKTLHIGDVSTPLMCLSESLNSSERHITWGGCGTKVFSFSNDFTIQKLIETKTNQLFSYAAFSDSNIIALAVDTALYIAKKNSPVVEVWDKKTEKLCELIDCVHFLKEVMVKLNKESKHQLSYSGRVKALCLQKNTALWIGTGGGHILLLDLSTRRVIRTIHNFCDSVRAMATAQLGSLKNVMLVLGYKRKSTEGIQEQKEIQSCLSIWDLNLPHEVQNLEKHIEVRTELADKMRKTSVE

For `COc1cc(C(=O)N2CCOCC2)ccc1Nc1ncc2cc[nH]c2n1` [Compound 10], the IC50 in assay [1] (setting [9]) stood at 34 nM; in assay [2] (Table 1, ATP at Km 112 μm), 40 nM.

For `N#Cc1cccc(-c2c[nH]c3ncnc(N4CCOCC4)c23)c1` [PF-06447474], in assay [3], the “reduction of LRRK2 activity in brain (Ser935 phosphorylation)” value (from here on “reduction of LRRK2 activity in brain”) was “capable of reducing LRRK2 activity in the brain”.

`COCCNc1nc(Nc2ccc(C(=O)N3CCOCC3)cc2OC)nc2[nH]ccc12` [Compound 11]: the IC50 in assay [1] (setting [9]) is 4 nM; in assay [2] (Table 1, ATP at Km 112 μm), 3 nM.

As to `CNc1nc(Nc2cc(F)c(C(=O)N3CCOCC3)cc2OC)nc2[nH]ccc12` [Compound 16], the IC50 came out at 2.1 nM in assay [1] (setting [9]) and 7.1 nM in assay [2] (Table 1, ATP at Km 112 μm).

As to `CCCNc1nc(Nc2ccc(C(=O)N3CCOCC3)cc2OC)nc2[nH]ccc12` [Compound 13], the half-maximal inhibitory concentration (IC50) in assay [1] (setting [9]) stood at 1.6 nM; in assay [2] (Table 1, ATP at Km 112 μm), 2.4 nM.

As to `COc1cc(C(=O)N2CCC(N3CCN(C)CC3)CC2)ccc1Nc1ncc2c(n1)N(C)c1ccccc1C(=O)N2C` [LRRK2-IN-1], the IC50 in assay [4] is 13 nM; in assay [5] it was 2450 nM; in assay [6] it was 3080 nM; in assay [7] it was 6 nM.

With `COc1cc(C(=O)N2CCOCC2)ccc1Nc1nc(NCC2CCCO2)c2cc[nH]c2n1` (stereo not shown) [Compound 14], the IC50 is 3.3 nM in assay [1] (setting [9]) and 4.4 nM in assay [2] (Table 1, ATP at Km 112 μm).

On to `COc1cc(C(=O)N2CCOCC2)ccc1Nc1nc(OC)c2nc[nH]c2n1` [Compound 22, (3-methoxy-4-((6-methoxy-9H-purin-2-yl)amino)phenyl)(morpholino)methanone], for which the IC50 in assay [1] (setting [10]) and in assay [2] (Table 3) was 3 nM each time.

Regarding `CCNc1nc(Nc2ccc(C(=O)N3CCOCC3)cc2OC)nc2[nH]ccc12` [Compound 12], the IC50 worked out at 1.1 nM in assay [1] (setting [9]) and 2.5 nM in assay [2] (Table 1, ATP at Km 112 μm).

Take `CCNc1nc(Nc2ccc(C(=O)N3CCOCC3)cc2OC)nc2[nH]cc(Cl)c12` [Compound 19]: the IC50 in assay [1] (setting [9]) is 1.4 nM; in assay [2] (Table 1, ATP at Km 112 μm), 4.4 nM.

Regarding `CCNc1nc(Nc2cc(F)c(C(=O)N3CCOCC3)cc2OC)ncc1C(F)(F)F` [GNE7915, reference compound], in assay [8] (100 mg/kg, intraperitoneal), the “dephosphorylation of Ser935 of LRRK2 in kidney, spleen and brain” value was “near complete dephosphorylation of Ser935 of LRRK2”. Moreover, the “dose at which complete inhibition in brain was observed” value in assay [8] (doses 10, 30, 50, 100 mg/kg) was determined as 100 mg/kg. The “reduction of LRRK2 activity in brain” value in assay [3] is recorded as “significantly reduce LRRK2 activity in the brain”.

As to `CNc1nc(Nc2ccc(C(=O)N3CCOCC3)cc2OC)nc2[nH]cnc12` [Compound 21, (3-methoxy-4-((6-(methylamino)-9H-purin-2-yl)amino)phenyl)(morpholino) methanone], the results for the IC50 in assay [1] (setting [10]) and in assay [2] (Table 3) were 35 nM and 44 nM, respectively.

With `O=C(Nc1cccnc1)c1cc(-c2ccnc(F)c2)ccc1OCc1ccccc1` [GSK2578215A], the IC50 in assay [4] came to 10.9 nM; in assay [5], 81.1 nM; in assay [6], 61.3 nM; in assay [7] it was 8.9 nM.

`CNc1nc(Nc2ccc(C(=O)N3CCOCC3)cc2OC)ncc1Cl` [HG-10-102-01]: the “reduction of LRRK2 activity in brain” value in assay [3] is given as “significantly reduce LRRK2 activity in the brain”.

Take `COc1cc(C(=O)N2CCOCC2)ccc1Nc1nc(OC)c2cn[nH]c2n1` [Compound 24, (3-methoxy-4-((4-methoxy-1H-pyrazolo[3,4-d]pyrimidin-6-yl)amino)phenyl) (morpholino)methanone]: the IC50 in assay [1] (setting [10]) came out at 19.4 nM; in assay [2] (Table 3), 18.5 nM.

Regarding `COc1cc(C(=O)N2CCOCC2)ccc1Nc1nc(NC2CC2)c2cc[nH]c2n1` [Compound 15], the IC50 in assay [1] (setting [9]) was found to be 2.4 nM; in assay [2] (Table 1, ATP at Km 112 μm), 4.7 nM.

On to `COc1cc(C(=O)N2CCOCC2)ccc1Nc1ncc2c(Cl)c[nH]c2n1` [Compound 17], for which the IC50 in assay [1] (setting [9]) was 159 nM; in assay [2] (Table 1, ATP at Km 112 μm) it was 108 nM.

In the case of `CCCNc1nc(Nc2ccc(C(=O)N3CCOCC3)cc2OC)nc2[nH]cc(Cl)c12` [Compound 20], the IC50 in assay [1] (setting [9]) was 7.7 nM; in assay [2] (Table 1, ATP at Km 112 μm), 12.4 nM.

In the case of “(3-methoxy-4-((4-(methylamino)-1H-pyrazolo[3,4-d]pyrimidin-6-yl)amino)phenyl)(morpholino)methanone [Compound 23]”, the IC50 in assay [1] (setting [10]) amounted to 11.5 nM; in assay [2] (Table 3), 4 nM.

As to `COc1cc(C(=O)N2CCOCC2)ccc1Nc1nc(OC)c2cc[nH]c2n1` [Compound 9, (3-methoxy-4-((4-methoxy-7H-pyrrolo[2,3-d]pyrimidin-2-yl)amino)phenyl) (morpholino)methanone], the IC50 was determined as 13.6 nM in assay [1] (setting [9]) and 95.7 nM in assay [2] (Table 1, ATP at Km 112 μm).

For orientation: IC50 means the concentration that inhibits the measured activity by half.
